# Numbers after ± are expanded uncertainties.
# Assays:
# [1] = for thermal diffusivity: 101.33 kPa, Laser flash
# [2] = molar heat capacity at constant pressure; settings: 101.33 kPa, Laser pulse heating
smiles,measurement,setting,value
[Zr] [zirconium],thermal diffusivity,"[1]; 289 K, Crystal 2",1.25e-05 ± 1.7e-06 m2/s
same,thermal diffusivity,"[1]; 327 K, Crystal 2",1.17e-05 ± 7e-07 m2/s
same,thermal diffusivity,"[1]; 379 K, Crystal 2",1.11e-05 ± 4e-07 m2/s
same,thermal diffusivity,"[1]; 423 K, Crystal 2",1.07e-05 ± 5e-07 m2/s
same,thermal diffusivity,"[1]; 473 K, Crystal 2",1.03e-05 ± 2e-07 m2/s
same,thermal diffusivity,"[1]; 524 K, Crystal 2",1.01e-05 ± 6e-07 m2/s
same,thermal diffusivity,"[1]; 569 K, Crystal 2",9.95e-06 ± 2e-07 m2/s
same,thermal diffusivity,"[1]; 621 K, Crystal 2",9.84e-06 ± 8e-07 m2/s
same,thermal diffusivity,"[1]; 670 K, Crystal 2",9.74e-06 ± 7e-07 m2/s
same,thermal diffusivity,"[1]; 715 K, Crystal 2",9.76e-06 ± 5e-07 m2/s
same,thermal diffusivity,"[1]; 772 K, Crystal 2",9.89e-06 ± 6e-07 m2/s
same,thermal diffusivity,"[1]; 827 K, Crystal 2",9.97e-06 ± 5e-07 m2/s
same,thermal diffusivity,"[1]; 872 K, Crystal 2",1.01e-05 ± 1.2e-06 m2/s
same,thermal diffusivity,"[1]; 923 K, Crystal 2",1.02e-05 ± 2e-07 m2/s
same,thermal diffusivity,"[1]; 970 K, Crystal 2",1.03e-05 ± 1.6e-06 m2/s
same,thermal diffusivity,"[1]; 1023 K, Crystal 2",1.05e-05 ± 6e-07 m2/s
same,thermal diffusivity,"[1]; 1068 K, Crystal 2",1.06e-05 ± 8e-07 m2/s
same,thermal diffusivity,"[1]; 1121 K, Crystal 2",9.27e-06 ± 9e-07 m2/s
same,thermal diffusivity,"[1]; 1132 K, Crystal 2",8.29e-06 ± 1.7e-06 m2/s
same,thermal diffusivity,"[1]; 1143 K, Crystal 1",7.99e-06 m2/s
same,thermal diffusivity,"[1]; 1150 K, Crystal 1",1.09e-05 ± 2.3e-06 m2/s
same,thermal diffusivity,"[1]; 1177 K, Crystal 1",1.41e-05 ± 5e-07 m2/s
same,thermal diffusivity,"[1]; 1218 K, Crystal 1",1.43e-05 ± 9e-07 m2/s
same,thermal diffusivity,"[1]; 1272 K, Crystal 1",1.48e-05 ± 3e-07 m2/s
same,thermal diffusivity,"[1]; 1317 K, Crystal 1",1.5e-05 ± 1.9e-06 m2/s
same,thermal diffusivity,"[1]; 1370 K, Crystal 1",1.51e-05 ± 8e-07 m2/s
same,thermal diffusivity,"[1]; 1431 K, Crystal 1",1.57e-05 ± 1.8e-06 m2/s
same,thermal diffusivity,"[1]; 1468 K, Crystal 1",1.57e-05 ± 2.3e-06 m2/s
same,Triple point temperature,"[1]; Crystal 2, Laser pulse heating",1141.4 ± 10 K
same,molar heat capacity at constant pressure,"[2]; 293 K, Crystal 2",26.31 ± 1.7 J/K/mol
same,molar heat capacity at constant pressure,"[2]; 323 K, Crystal 2",26.57 ± 1.4 J/K/mol
same,molar heat capacity at constant pressure,"[2]; 373 K, Crystal 2",26.89 ± 0.97 J/K/mol
same,molar heat capacity at constant pressure,"[2]; 423 K, Crystal 2",27.31 ± 0.9 J/K/mol
same,molar heat capacity at constant pressure,"[2]; 473 K, Crystal 2",27.78 ± 0.88 J/K/mol
same,molar heat capacity at constant pressure,"[2]; 523 K, Crystal 2",28.27 ± 0.88 J/K/mol
same,molar heat capacity at constant pressure,"[2]; 573 K, Crystal 2",28.82 ± 0.89 J/K/mol
same,molar heat capacity at constant pressure,"[2]; 623 K, Crystal 2",29.33 ± 0.91 J/K/mol
same,molar heat capacity at constant pressure,"[2]; 673 K, Crystal 2",29.88 ± 0.93 J/K/mol
same,molar heat capacity at constant pressure,"[2]; 723 K, Crystal 2",30.6 ± 0.95 J/K/mol
same,molar heat capacity at constant pressure,"[2]; 773 K, Crystal 2",31.24 ± 0.94 J/K/mol
same,molar heat capacity at constant pressure,"[2]; 823 K, Crystal 2",31.87 ± 0.96 J/K/mol
same,molar heat capacity at constant pressure,"[2]; 873 K, Crystal 2",32.53 ± 0.98 J/K/mol
same,molar heat capacity at constant pressure,"[2]; 923 K, Crystal 2",33.26 ± 0.99 J/K/mol
same,molar heat capacity at constant pressure,"[2]; 973 K, Crystal 2",33.94 ± 1 J/K/mol
same,molar heat capacity at constant pressure,"[2]; 1023 K, Crystal 2",34.6 ± 1 J/K/mol
same,molar heat capacity at constant pressure,"[2]; 1073 K, Crystal 2",35.23 ± 1.1 J/K/mol
same,molar heat capacity at constant pressure,"[2]; 1083 K, Crystal 2",35.42 ± 1.1 J/K/mol
same,molar heat capacity at constant pressure,"[2]; 1093 K, Crystal 2",35.84 ± 1.3 J/K/mol
same,molar heat capacity at constant pressure,"[2]; 1103 K, Crystal 2",36.88 ± 1.6 J/K/mol
same,molar heat capacity at constant pressure,"[2]; 1113 K, Crystal 2",39.48 ± 2.2 J/K/mol
same,molar heat capacity at constant pressure,"[2]; 1123 K, Crystal 2",43.12 ± 3.2 J/K/mol
same,molar heat capacity at constant pressure,"[2]; 1128 K, Crystal 2",45.62 ± 4 J/K/mol
same,molar heat capacity at constant pressure,"[2]; 1133 K, Crystal 2",49.09 ± 5.3 J/K/mol
same,molar heat capacity at constant pressure,"[2]; 1138 K, Crystal 2",61.42 ± 8.2 J/K/mol
same,molar heat capacity at constant pressure,"[2]; 1143 K, Crystal 1",52.29 ± 5.5 J/K/mol
same,molar heat capacity at constant pressure,"[2]; 1148 K, Crystal 1",42.04 ± 5.6 J/K/mol
same,molar heat capacity at constant pressure,"[2]; 1153 K, Crystal 1",33.83 ± 4.4 J/K/mol
same,molar heat capacity at constant pressure,"[2]; 1163 K, Crystal 1",31 ± 2.9 J/K/mol
same,molar heat capacity at constant pressure,"[2]; 1173 K, Crystal 1",29.58 ± 1.8 J/K/mol
same,molar heat capacity at constant pressure,"[2]; 1223 K, Crystal 1",29.71 ± 0.89 J/K/mol
same,molar heat capacity at constant pressure,"[2]; 1273 K, Crystal 1",30.06 ± 0.9 J/K/mol
same,molar heat capacity at constant pressure,"[2]; 1323 K, Crystal 1",30.23 ± 0.9 J/K/mol
same,molar heat capacity at constant pressure,"[2]; 1373 K, Crystal 1",30.3 ± 0.91 J/K/mol
same,molar heat capacity at constant pressure,"[2]; 1423 K, Crystal 1",30.53 ± 0.91 J/K/mol
same,molar heat capacity at constant pressure,"[2]; 1473 K, Crystal 1",30.72 ± 0.92 J/K/mol
same,molar heat capacity at constant pressure,"[2]; 1523 K, Crystal 1",30.91 ± 0.93 J/K/mol
same,molar heat capacity at constant pressure,"[2]; 1573 K, Crystal 1",31.36 ± 0.94 J/K/mol
same,molar heat capacity at constant pressure,"[2]; 1623 K, Crystal 1",31.34 ± 0.94 J/K/mol
same,molar heat capacity at constant pressure,"[2]; 1673 K, Crystal 1",31.59 ± 0.95 J/K/mol
same,molar heat capacity at constant pressure,"[2]; 1723 K, Crystal 1",32.07 ± 0.96 J/K/mol
same,molar heat capacity at constant pressure,"[2]; 1773 K, Crystal 1",32.8 ± 0.99 J/K/mol
same,molar heat capacity at constant pressure,"[2]; 1823 K, Crystal 1",33.31 ± 1 J/K/mol
same,molar heat capacity at constant pressure,"[2]; 1873 K, Crystal 1",33.5 ± 1 J/K/mol
same,molar heat capacity at constant pressure,"[2]; 1923 K, Crystal 1",33.68 ± 1 J/K/mol
same,molar heat capacity at constant pressure,"[2]; 1973 K, Crystal 1",34.23 ± 1 J/K/mol
